Series [1] relates to Candida albicans. Briefly: Inhibition of biofilm formation in fluconazole-resistant clinical isolate Candida albicans Gu5 at 2 microg/ml measured after 24 hrs by alamar blue staining based colorimetric analysis. It is filed as functional, organism-based. As to conditions: dose 2.0 µg/ml. For orientation: The colour change of resazurin is a common sign of viable cells or microbes.

The test system of series [2] is [Candida] auris. Description: Antifungal activity against clinical isolate fluconazole-resistant Candida auris CBS12776 assessed as inhibition of fungal growth measured after 24 hrs by CLSI based microtiter plate analysis. It counts as functional. As to conditions: Candidozyma auris.
Series [3] can be described thus: Selectivity ratio of IC50 for cytotoxicity against human HBE cells to MIC80 for antifungal activity against clinical isolate fluconazole-resistant Candida albicans DSY296 harbouring TAC1 mutation overexpressing efflux pump CdrL and Cdr2. It is filed as toxicity, cell-based.
Series [4] in a line: Selectivity ratio of IC50 for cytotoxicity against human HBE cells to MIC80 for antifungal activity against clinical isolate fluconazole-resistant Candida auris CBS12776. It counts as toxicity, cell-based.
The nature of series [5]: Selectivity ratio of IC50 for cytotoxicity against human HBE cells to MIC80 for antifungal activity against clinical isolate Candida albicans SCUPC2R14MPG2A harbouring UPC2 mutation overexpressing […]. It counts as toxicity, cell-based.
Series [6] can be described thus: Selectivity ratio of IC50 for cytotoxicity against human HBE cells to MIC80 for antifungal activity against clinical isolate fluconazole-resistant Candida albicans CA632. It counts as toxicity, cell-based.
Series [7] has as its system Candida albicans. Description: Antifungal activity against clinical isolate fluconazole-resistant Candida albicans DSY296 harbouring TAC1 mutation overexpressing efflux pump CdrL and Cdr2 assessed as inhibition of fungal growth measured after 24 hrs by CLSI based microtiter plate analysis. It is filed as functional.
For series [8], the system named is Candida albicans. Description: Inhibition of biofilm formation in fluconazole-resistant clinical isolate Candida albicans Gu5 at 8 microg/ml measured after 24 hrs by alamar blue staining based colorimetric analysis. It counts as functional.
Series [9] in a line: Selectivity ratio of IC50 for cytotoxicity against human HBE cells to MIC80 for antifungal activity against clinical isolate Candida albicans YEM13 overexpressing efflux pump MdrL. It is filed as toxicity, cell-based.
The test system of series [10] is [Candida] auris. Description: Antifungal activity against clinical isolate fluconazole-resistant Candida auris CBS12774 assessed as decrease in viable count at 2 to 4 microg/ml by colony-counting based time-killing kinetics assay. It is filed as functional, organism-based. Particulars: Candidozyma auris, dose 2-4 µg/ml, time 24.0 hrs, TDE = time-dependent effect.

Series [11] is described as follows: Selectivity ratio of IC50 for cytotoxicity against human HBE cells to MIC80 for antifungal activity against clinical isolate Candida albicans SCMRRIR34MPG2A harbouring MRR1 mutation overexpressing efflux pump MdrL. It counts as toxicity, cell-based.
For series [12], the system named is Candida albicans. Briefly: Antifungal activity against clinical isolate fluconazole-resistant Candida albicans Gu5 harbouring TAC1 mutation overexpressing efflux pump CdrL and Cdr2 assessed as inhibition of fungal growth measured after 24 hrs by CLSI based microtiter plate analysis. It counts as functional.

Values after ≈ are worked out from the molar mass of the structure shown. Active and inactive are the calls of the source. The rule behind the calls is not given here.

One may read the inhibition as how much of the control response was suppressed. A word on the MIC80: it is the lowest concentration that inhibits either 80% of growth or 80% of the strains tested, depending on the study.

`C=C1C(=O)[C@@]2(C)CC[C@@H]3[C@@]1(CC[C@H]1[C@@]3(C)CCC[C@@]1(C)C(=O)OCCCOc1ccc(C(=N)N)cc1)C2`: in the series on Candida albicans [1], the inhibition result is “Active”. The MIC80 (in series [Candida] auris [2]; in the series with Candida albicans [7]; in the series with Candida albicans [12]) was 2 µg/mL (≈ 3.95 µM) throughout. Further, the selectivity ratio in series [3], in series [4], in [5], in series [6], in series [9] and in series [11] was 8 throughout. Further, in the series on Candida albicans [8], the inhibition at 8 µg/mL was 81.5%. Also, in series [Candida] auris [10], the Activity entry was “Tde”.

For the origin of these results see ChEMBL document CHEMBL5365543, “Benzamidine Conjugation Converts Expelled Potential Active Agents into Antifungals against Drug-Resistant Fungi” (J Med Chem, 2023).
